{"source": "patent US12343321B1", "about": "“Method for ameliorating or avoiding the adverse effects of exogenous gonadotropins on reproductive performance” (CHINA AGRICULTURAL UNIVERSITY, priority 2024, dated 2025)", "key": {"[1]": {"test_system": "ICR female mice treated with eCG/hCG", "assay": "Embryo implantation sites after embryo transfer in gonadotropin-treated mice", "assay_type": "in vivo, mouse", "details": "for number of implantation sites compared with control group (exogenous gonadotropin only): 12 embryos transferred on day 4, counted on day 5 of pregnancy, drugs 200 mg/kg BW total i.p. daily, BGJ398 100 μM via uterine horn; for effect on implantation and live birth, alone or in synergy with NAC/VA: 200 mg/kg BW alone, or 100 + 100 mg/kg BW with NAC/VA", "description": "(§1) In the animal experiment, ICR female mice (SPF grade, 8 weeks old, 28-30 g) were selected and randomized into groups of 10-18, including normal control group (CON), superovulation stimulation group (eCG/hCG), superovulation stimulation and BGJ398 group (eCG/hCG+BGJ398), superovulation stimulation and NAC single administration group (eCG/hCG+NAC), superovulation stimulation and VA single administration group (eCG/hCG+VA), superovulation stimulation and NAC and VA combined administration group (eCG/hCG+NAC+VA). The temperature of the breeding environment was 22° C., 12-h light/dark cycle was performed, and the mice were provided with free access to water and food. After the animals were purchased, they were acclimated for 5-7 days.\nSuperovulation stimulation and BGJ398 group (eCG/hCG+BGJ398): Female 8-week-old ICR mice were taken as the research object and injected with 10 IU eCG and […] to induce superovulation, respectively. On day 3 of pregnancy, the mice were injected with 5 μL of FGF receptor inhibitor containing 100 μM BGJ398 inhibitor through the uterine horn. Embryo transfer was then performed on day 4 after the vaginal plug was observed.\n(§2) Superovulation stimulation and NAC single administration group (eCG/hCG+NAC): A female 8-week-old ICR mouse was taken as the research object. On the basis of the treatment of the superovulation stimulation group (eCG/hCG), each mouse was intraperitoneally injected with NAC at a dose of 200 mg/kg BW daily 5 days prior to the injection of eCG. Embryo transfer was then performed on day 4 after the vaginal plug was observed. The injection was continued until day 10 of pregnancy.\nas §2, with “VA” for “NAC”, “(eCG/hCG+VA):” for “(eCG/hCG+NAC):”, “eCG/hCG.” for “eCG.”\nas §2, with “and VA combined” for “single”, “(eCG/hCG+NAC+VA):” for “(eCG/hCG+NAC):”, “with a mixture of” for “with”, “100 mg/kg BW and VA at a dose of 100” for “200”\nThe mice in the CON group, eCG/hCG group, eCG/hCG+BGJ398 group, eCG/hCG+NAC group, eCG/hCG+VA group, and eCG/hCG+NAC+VA group were separately in the same cage and mated with a vasoligated male mouse. The vaginal plug was checked at about 8 am in the next morning. The pseudopregnant female mouse whose vaginal plug was observed was ready for transfer. The day when the vaginal plug was observed was taken as day 1, and day 4 was the date of blastocyst transfer. […]\nEmbryo transfer was separately performed on the mice in the CON group, eCG/hCG group, eCG/hCG+BGJ398 group, eCG/hCG+NAC group, eCG/hCG+VA group, and eCG/hCG+NAC+VA group on day 4 of pregnancy; embryo implantation sites were counted by orbital injection of Chicago blue on day 5 of pregnancy. […]"}, "pERK": {"test_system": "pERK", "assay": "Molecular detection of pERK in mouse endometrium after eCG/hCG treatment", "assay_type": "in vivo", "details": "day 4 after vaginal plug, NAC 200 mg/kg BW i.p. daily, BGJ398 100 μM, 5 μL via uterine horn, or NAC 100 + VA 100 mg/kg BW", "description": "(§3) 2.2 Molecular Regulation Effect of N-Acetylcysteine in Combination with Vitamin A on Alleviating Uterine Receptivity Decrease Induced by Gonadotropin Treatments\nas §1\n(§4) Control group (CON): A female 8-week-old ICR mouse was taken as the research object, subjected to natural estrus, mated with a vasoligated male mouse, and was taken as the control group. The uterus of the mouse was then separated on day 4 after the vaginal plug was observed, namely, when the uterine receptivity was established, and the detection of a plurality of signal molecules was carried out. […]"}, "[2]": {"test_system": "ICR female mice treated with eCG/hCG", "assay": "Live birth after embryo transfer in gonadotropin-treated mice", "assay_type": "in vivo", "details": "for live births compared with control group (exogenous gonadotropin only): 12 embryos transferred on day 4, counted on day of delivery, drugs 200 mg/kg BW total i.p. daily", "procedure": "Superovulation stimulation and BGJ398 group (eCG/hCG+BGJ398): Female 8-week-old ICR mice were taken as the research object and injected with 10 IU eCG and PMSG to induce superovulation, respectively. On day 3 of pregnancy, the mice were injected with 5 μL of FGF receptor inhibitor containing 100 μM BGJ398 inhibitor through the uterine horn. Embryo transfer was then performed on day 4 after the vaginal plug was observed.\nSuperovulation stimulation and VA single administration group (eCG/hCG+VA): A female 8-week-old ICR mouse was taken as the research object. On the basis of the treatment of the superovulation stimulation group (eCG/hCG), each mouse was intraperitoneally injected with VA at a dose of 200 mg/kg BW daily 5 days prior to the injection of eCG/hCG. Embryo transfer was then performed on day 4 after the vaginal plug was observed. The injection was continued until day 10 of pregnancy.\nSuperovulation stimulation and NAC and VA combined administration group (eCG/hCG+NAC+VA): A female 8-week-old ICR mouse was taken as the research object. On the basis of the treatment of the superovulation stimulation group (eCG/hCG), each mouse was intraperitoneally injected with a mixture of NAC at a dose of 100 mg/kg BW and VA at a dose of 100 mg/kg BW daily 5 days prior to the injection of eCG. Embryo transfer was then performed on day 4 after the vaginal plug was observed. The injection was continued until day 10 of pregnancy.\nEmbryo transfer was separately performed on the mice in the CON group, eCG/hCG group, eCG/hCG+BGJ398 group, eCG/hCG+NAC group, eCG/hCG+VA group, and eCG/hCG+NAC+VA group on day 4 of pregnancy, and the mice were then placed in the animal house for normal feeding. On the day of delivery, the number born alive index was counted. […]"}, "Gilts": {"test_system": "Gilts", "assay": "Reproductive performance of gilts in batch farrowing with FTAI (pregnancy rate, farrowing rate)", "assay_type": "in vivo, pig", "details": "for Estrus detection rate (%) / Farrowing rate (%) / Pregnancy Rate (%): batch farrowing with FTAI (eCG/GnRH), drugs in feed, 200 mg/kg BW total daily; for female pig farrowing rate compared with batch farrowing with FTAI (control group) / female pig pregnancy rate compared with batch farrowing with FTAI (control group): eCG/GnRH, result in words", "description": "Gilts with the weight of 120-140 kg and the age of 200-250 days were selected for the experiment, which were divided into the batch farrowing with FTAI (CON) group, batch farrowing supplemented with NAC (NAC) group, batch farrowing supplemented with VA (VA) group, batch farrowing with combined administration of NAC and VA (NAC+VA 1:1) group, batch farrowing with combined administration of NAC and VA (NAC+VA […]) group, and batch farrowing with combined administration of NAC and VA (NAC+VA 9:1) group. Each group had 48-55 gilts.\nThe technical process of batch farrowing of the gilts in the CON group (namely the batch farrowing with FTAI scheme) was as follows: 1) estrus synchronization treatment: the gilt orally taken altrenogest for 18 days; 2) after an interval of 42 h after the estrus synchronization treatment, exogenous gonadotropin eCG was injected to induce follicular development synchronization; 3) after an interval of 80 h after eCG injection, an ovulatio induction drugs (GnRH) was injected. After an interval of 24 h after the injection, a first mating was carried out, and then after an interval of 16 h, a second mating was carried out. Pregnancy examination was then performed and the gilts were fed normally until delivery.\nOn the basis of the technical process of batch farrowing of the gilts in the CON group, in the NAC group, VA group, and NAC+VA group, NAC at a dose of 200 mg/kg BW, VA at a dose of 200 mg/kg BW, combined addition of NAC (100 mg/kg BW) and VA (100 mg/kg BW), combined addition of NAC (20 mg/kg BW) and VA (180 mg/kg BW), and combined addition of NAC (180 mg/kg BW) and VA (20 mg/kg BW) were separately added into the feed daily 14 days prior to the eCG injection until the end of first pregnancy examination (day 30-32 of pregnancy). The gilts were then fed normally until delivery.\nThe pregnancy rate of the female pigs was counted through pregnancy examination; the farrowing rate of the female pigs was counted during delivery. The pregnancy rate and the farrowing rate of female pigs from different treatment groups were calculated as follows: Female pig pregnancy rate=pregnant female pig count/mated female pig count×100% Female pig farrowing rate=delivery female pig count/mated female pig count×100%"}, "ERα": {"test_system": "ERα", "assay": "Molecular detection of ERα in mouse endometrium after eCG/hCG treatment", "assay_type": "in vivo", "details": "day 4 after vaginal plug, VA 200 mg/kg BW i.p. daily alone, or NAC 100 + VA 100 mg/kg BW", "description": "as §3, §1, §4"}}, "note": "“Also recorded” adds a separate entry of the source. Marks after values point to notes of the source that are not given here."}
{"smiles": "CCN1CCN(c2ccc(Nc3cc(N(C)C(=O)Nc4c(Cl)c(OC)cc(OC)c4Cl)ncn3)cc2)CC1", "note": "[BGJ398]", "values": [{"measurement": "number of implantation sites compared with control group (exogenous gonadotropin only)", "setting": "[1]", "value": "significantly higher; also recorded: significantly increase"}, {"measurement": "excessive phosphorylation of pERK (exogenous gonadotropin-induced pERK overexpression)", "setting": "pERK", "value": "significantly inhibit"}, {"measurement": "toxicity to fetal development after implantation", "setting": "[2]; BGJ398 100 μM, 5 μL via uterine horn on day 3", "value": "highly toxic; also recorded: negatively affect fetal development; also recorded: fetus regressed"}]}
{"smiles": "COc1ccc2[nH]cc(CCNC(C)=O)c2c1", "note": "[MT, melatonin]", "values": [{"measurement": "effect on implantation and live birth, alone or in synergy with NAC/VA", "setting": "[1]", "value": "do not work well"}]}
{"smiles": "CC(=O)N[C@@H](CS)C(=O)O", "note": "[NAC, N-acetyl-L-cysteine]", "values": [{"measurement": "Estrus detection rate (%)", "setting": "Gilts", "value": 88.89, "unit": "%"}, {"measurement": "Farrowing rate (%)", "setting": "Gilts", "value": "81.48^b %"}, {"measurement": "Pregnancy Rate (%)", "setting": "Gilts", "value": "85.19^b %"}, {"measurement": "female pig farrowing rate compared with batch farrowing with FTAI (control group)", "setting": "Gilts", "value": "significantly improve"}, {"measurement": "female pig pregnancy rate compared with batch farrowing with FTAI (control group)", "setting": "Gilts", "value": "significantly improve"}, {"measurement": "number of implantation sites compared with control group (exogenous gonadotropin only)", "setting": "[1]", "value": "increased to some extent"}, {"measurement": "excessive phosphorylation of pERK (exogenous gonadotropin-induced pERK overexpression)", "setting": "pERK", "value": "significantly inhibit"}, {"measurement": "live births compared with control group (exogenous gonadotropin only)", "setting": "[2]", "value": "increased to some extent"}]}
{"smiles": "CC1=C(/C=C/C(C)=C/C=C/C(C)=C/CO)C(C)(C)CCC1", "note": "[VA, vitamin A]", "values": [{"measurement": "expression of ERα (exogenous gonadotropin-induced ERα overexpression)", "setting": "ERα", "value": "significantly inhibits"}, {"measurement": "Estrus detection rate (%)", "setting": "Gilts", "value": 93.75, "unit": "%"}, {"measurement": "Farrowing rate (%)", "setting": "Gilts", "value": "83.33^b %"}, {"measurement": "Pregnancy Rate (%)", "setting": "Gilts", "value": "89.58^b %"}, {"measurement": "female pig farrowing rate compared with batch farrowing with FTAI (control group)", "setting": "Gilts", "value": "significantly improve"}, {"measurement": "female pig pregnancy rate compared with batch farrowing with FTAI (control group)", "setting": "Gilts", "value": "significantly improve"}, {"measurement": "number of implantation sites compared with control group (exogenous gonadotropin only)", "setting": "[1]", "value": "increased to some extent"}, {"measurement": "live births compared with control group (exogenous gonadotropin only)", "setting": "[2]", "value": "increased to some extent"}]}
{"smiles": "O=C1O[C@H]([C@@H](O)CO)C(O)=C1O", "note": "[VC, vitamin C]", "values": [{"measurement": "effect on implantation and live birth, alone or in synergy with NAC/VA", "setting": "[1]", "value": "do not work well"}]}
